Source: article PMC9833666, “Designing and identifying β-hairpin peptide macrocycles with antibiotic potential” (Science Advances, 2023)
Bridge positions count the residues as written; N and C are the ends. Peptide text beside a SMILES is read from it.

Tested on: Escherichia coli W3110
Assay type: cell-based
Conditions: W3110

Row | W3110 MIC | W3110 MIC MH | W3110 MIC RPMI | SMILES
1 | >256 mg/L |  |  | CC[C@H](C)[C@@H]1NC(=O)[C@H](CCCNC(=N)N)NC(=O)[C@H](C(C)C)NC(=O)[C@H](CCCNC(=N)N)NC(=O)[C@@H](N)CSSC[C@@H](C(=O)O)NC(=O)[C@H](CCC(=O)O)NC(=O)[C@H](C(C)C)NC(=O)[C@H](CCC(N)=O)NC(=O)[C@H](CC(C)C)NC(=O)[C@H](CCCCN)NC(=O)[C@H](CC(C)C)NC(=O)[C@H](CCCNC(=N)N)NC(=O)CNC(=O)[C@H](CO)NC(=O)[C@H](CCCNC(=N)N)NC(=O)[C@H](CC(N)=O)NC(=O)[C@H](CC(N)=O)NC(=O)[C@H](C(C)C)NC(=O)[C@H](CC(N)=O)NC1=O [SyRC-14] (H-CRVRINVNNRSGRLKLQVEC-OH; disulfide 1-20)
2 | >256 mg/L |  |  | CC[C@H](C)[C@@H]1NC(=O)[C@H]([C@@H](C)O)NC(=O)[C@H](C(C)C)NC(=O)[C@@H](N)CSSC[C@@H](C(=O)O)NC(=O)[C@H](C(C)C)NC(=O)[C@H](CCC(=O)O)NC(=O)[C@H](C(C)C)NC(=O)[C@H]([C@@H](C)O)NC(=O)[C@H](C(C)C)NC(=O)[C@H](CCCCN)NC(=O)[C@H](C(C)C)NC(=O)CNC(=O)CNC(=O)[C@H](CCCNC(=N)N)NC(=O)CNC(=O)[C@H](CC(N)=O)NC(=O)[C@H](CC(=O)O)NC(=O)[C@H](C(C)C)NC(=O)[C@H](CCCNC(=N)N)NC1=O [SyRA-8] (H-CVTIRVDNGRGGVKVTVEVC-OH; disulfide 1-20)
3 | >256 mg/L |  |  | CC[C@H](C)[C@@H]1NC(=O)[C@H](CC(N)=O)NC(=O)[C@H]([C@@H](C)CC)NC(=O)[C@H](CCCCN)NC(=O)[C@H](C(C)C)NC(=O)[C@H](CCCNC(=N)N)NC(=O)[C@@H](N)CSSC[C@@H](C(=O)O)NC(=O)[C@H](CCC(=O)O)NC(=O)[C@H](C(C)C)NC(=O)[C@H](CCC(=O)O)NC(=O)[C@H](CC(C)C)NC(=O)[C@H](CCCNC(=N)N)NC(=O)[C@H](C(C)C)NC(=O)[C@H](CCCNC(=N)N)NC(=O)[C@H](CCCNC(=N)N)NC(=O)[C@H](CO)NC(=O)CNC(=O)[C@H](CC(N)=O)NC(=O)[C@H](CC(=O)O)NC1=O [SyRC-2] (H-CRVKINIDNGSRRVRLEVEC-OH; disulfide 1-20)
4 |  | 128 mg/L | 32 mg/L | CC[C@H](C)[C@@H]1NC(=O)[C@H](CCCNC(=N)N)NC(=O)[C@H](C(C)C)NC(=O)[C@@H](N)CSSC[C@@H](C(=O)O)NC(=O)[C@H](C(C)C)NC(=O)[C@H](CCC(N)=O)NC(=O)[C@H](C(C)C)NC(=O)[C@H](CO)NC(=O)[C@H](C(C)C)NC(=O)[C@H](CCCCN)NC(=O)[C@H](C(C)C)NC(=O)CNC(=O)[C@H](CCCNC(=N)N)NC(=O)[C@H](CCCNC(=N)N)NC(=O)[C@H](CCCNC(=N)N)NC(=O)[C@H](CC(N)=O)NC(=O)[C@H](CC(N)=O)NC(=O)[C@H](CC(C)C)NC(=O)[C@H](CCCNC(=N)N)NC1=O [SySA-66] (H-CVRIRLNNRRRGVKVSVQVC-OH; disulfide 1-20)
5 | >256 mg/L |  |  | CC[C@H](C)[C@@H]1NC(=O)[C@H](CCCNC(=N)N)NC(=O)[C@H]([C@@H](C)CC)NC(=O)[C@H](CCCNC(=N)N)NC(=O)[C@@H](N)CSSC[C@@H](C(=O)O)NC(=O)[C@H](CCC(=O)O)NC(=O)[C@H](C(C)C)NC(=O)[C@H](CCC(N)=O)NC(=O)[C@H](CC(C)C)NC(=O)[C@H](CCCNC(=N)N)NC(=O)[C@H](C(C)C)NC(=O)[C@H]([C@@H](C)O)NC(=O)CNC(=O)CNC(=O)CNC(=O)[C@H](CC(N)=O)NC(=O)[C@H](CC(=O)O)NC(=O)[C@H](C(C)C)NC(=O)[C@H](CC(N)=O)NC1=O [SyRC-12] (H-CRIRINVDNGGGTVRLQVEC-OH; disulfide 1-20)
